Twelve molecules from ChEMBL document CHEMBL3734667 (Bioorg Med Chem, 2015) can be followed below.

As usually defined, the EC50 is the concentration at which the effect is half-maximal. For orientation: CC50 means the concentration at which the toxic effect on the cells reaches its halfway point.

The subject of data set [1] is Vesicular stomatitis virus. In words: Antiviral activity against VSV. It is filed as functional, organism-based.
The next data set concerns Poliovirus 1. In words: Antiviral activity against Human poliovirus 1 Sabin infected in african green monkey Vero76 cells assessed as inhibition of virus-induced cytopathogenicity by plaque reduction assay. The settings on record: Enterovirus C, Vero 76. It is filed as functional, organism-based.
The nature of data set [2]: Selectivity index, ratio of CC50 for MDBK cells to EC50 for BVDV. Set-up: species or system Bovine viral diarrhea virus 1.
A short description of data set [3]: Cytotoxicity against african green monkey Vero 76 cells assessed as cell viability after 48 to 96 hrs by crystal violet staining method. It is filed as cell-based. The following applies: chlorocebus sabaeus.
In data set [4] the test system is Human immunodeficiency virus 1. In words: Antiviral activity against HIV-1 infected in MT4 cells assessed as inhibition of virus-induced cytopathogenicity after 4 days by MTT assay. It is filed as functional, organism-based. The settings on record: Human immunodeficiency virus 1, MT4, 96 h. (In general: Protection from cytopathic effect is a common read-out in antiviral testing.)

In the next data set the test system is Coxsackievirus B5. In words: Antiviral activity against human CVB5 infected in african green monkey Vero76 cells assessed as inhibition of virus-induced cytopathogenicity after 3 days by plaque reduction assay. It is filed as functional, organism-based. The following applies: Enterovirus B, Vero 76, 72 h.
Data set [5] is described as follows: Cytotoxicity against human MT4 cells assessed as cell viability after 96 hrs by MTT assay. It is filed as cell-based.
The nature of data set [6]: Cytotoxicity against BHK cells assessed as cell viability after 48 to 96 hrs by MTT assay. It is filed as cell-based, Mesocricetus auratus. The settings on record: hamster. A general note: Formazan colour is commonly taken as a measure of viable cells.
Data set [7] is described as follows: Cytotoxicity against MDBK cells assessed as cell viability after 48 to 96 hrs by MTT assay. It is filed as cell-based, Bos taurus. The following applies: cattle.
Another data set concerns Human orthopneumovirus. In words: Antiviral activity against human RSV infected in african green monkey Vero76 cells assessed as inhibition of virus-induced cytopathogenicity after 5 days by plaque reduction assay. The settings on record: human respiratory syncytial virus, Vero 76, 120 h. It is filed as functional, organism-based.
Data set [8] has as its system Bovine viral diarrhea virus 1. In words: Antiviral activity against BVDV infected in MDBK cells assessed as inhibition of virus-induced cytopathogenicity after 3 to 4 days by MTT assay. It is filed as functional, organism-based. The settings on record: Bovine viral diarrhea virus isolates and strains.
A further data set has as its system Vaccinia virus. In words: Antiviral activity against Vaccinia virus. It is filed as functional, organism-based. The following applies: Orthopoxvirus vaccinia.
The nature of data set [9]: Selectivity index, ratio of CC50 for african green monkey Vero76 cells to EC50 for human CVB5. Set-up: species or system Coxsackievirus B5, Vero 76.
The subject of another data set is Yellow fever virus. In words: Antiviral activity against YFV infected in BHK-21 cells assessed as inhibition of virus-induced cytopathogenicity after 3 to 4 days by MTT assay. It is filed as functional, organism-based.
The test system of data set [10] is Mammalian orthoreovirus 1. In words: Antiviral activity against Reo-1 virus infected in BHK-21 cells assessed as inhibition of virus-induced cytopathogenicity after 3 to 4 days by MTT assay. It is filed as functional, cell-based. The following applies: Mammalian orthoreovirus 1, BHK-21.
Data set [11] in a line: Selectivity index, ratio of CC50 for african green monkey Vero76 cells to EC50 for human RSV. Set-up: species or system human respiratory syncytial virus, Vero 76.
The next data set deals with Human alphaherpesvirus 1. In words: Antiviral activity against HSV1. It is filed as functional, organism-based.
Data set [12] in a line: Selectivity index, ratio of CC50 for BHK-21 cells to EC50 for YFV. Set-up: species or system Yellow fever virus.

Regarding `COc1ccc2nn(-c3ccc(OCCCC(C)(C)C(=O)O)cc3)nc2c1`, the EC50 in data set [1] is above 100 µM; in the data set with Poliovirus 1 it was above 100 µM; in [4] it was above 100 µM; in the data set with Coxsackievirus B5, 2 µM; with Human orthopneumovirus, above 100 µM; in [8], 44 µM. The EC50 in the data set on Vaccinia virus and in the data set with Yellow fever virus was above 100 µM each time. Further, the “Ratio CC50/EC50” value in data set [2] was found to be 2.27; in data set [9] it was 10. The CC50 in data set [3] was 20 µM; in [6] it was 50 µM; in [7], above 100 µM. Besides, in data set [5], the CC50 at 96 h was 28 µM.

In the case of `[O-][n+]1c2cc(C(F)(F)F)ccc2nn1-c1ccc(O)cc1`, the EC50 in data set [1] is above 100 µM; in the data set with Poliovirus 1 it was above 100 µM; in data set [4] it was above 100 µM; with Coxsackievirus B5, 75 µM; in the data set on Human orthopneumovirus, 40 µM; in data set [8], above 100 µM. The EC50 (in [10]; with Vaccinia virus; in the data set with Yellow fever virus) was above 100 µM throughout. Besides, the CC50 is above 100 µM in data set [3], above 100 µM in data set [6] and 72 µM in [7]. In addition, the CC50 at 96 h in data set [5] was above 100 µM. Moreover, the “Ratio CC50/EC50” value in data set [9] is on record as above 1.33; in data set [11], above 2.5.

For the molecule `O=c1cnn([C@@H]2O[C@H](CO)[C@@H](O)[C@H]2O)c(=O)[nH]1` [6-AZAURIDINE], the EC50 in [1] was above 100 µM; with Poliovirus 1, above 100 µM; in the data set on Human alphaherpesvirus 1, above 100 µM; in the data set with Coxsackievirus B5, above 100 µM; with Human orthopneumovirus it was 1.2 µM; in [8] it was above 100 µM. In addition, the EC50 in data set [10] is above 100 µM; in the data set with Vaccinia virus it was 11 µM. The “Ratio CC50/EC50” value is above 3.8 in data set [12] and 16.7 in [11]. Also, the CC50 in data set [6] and in data set [7] was above 100 µM in each case.

With `Cc1ccc2nn(-c3ccc(OCC(C)(C)C(=O)O)cc3)nc2c1`, the EC50 was above 100 µM in data set [1]; above 100 µM with Poliovirus 1; above 100 µM in [4]; 5 µM in the data set on Coxsackievirus B5; 15 µM with Human orthopneumovirus; above 100 µM in [8]. Further, the EC50 with Vaccinia virus and in the data set with Yellow fever virus was above 100 µM each time. The 50% cytotoxic concentration (CC50) in data set [3] was 60 µM; in data set [6], at least 100 µM; in [7] it was 69 µM. Besides, the CC50 at 96 h in [5] was at least 100 µM. The “Ratio CC50/EC50” value was 12 in [9] and 4 in [11].

Take `CN(C)c1cccc(C(=O)OCCCn2nc3ccccc3n2)c1`: the EC50 in [1] was above 100 µM; in data set [4] it was above 100 µM; with Coxsackievirus B5, 73 µM; with Human orthopneumovirus, above 100 µM; in data set [8], above 100 µM; with Vaccinia virus it was above 100 µM. Besides, in the data set with Yellow fever virus, the EC50 was above 100 µM. The CC50 in data set [3], in data set [6] and in data set [7] was above 100 µM throughout. The CC50 at 96 h in [5] was above 100 µM. Besides, in data set [9], the “Ratio CC50/EC50” value was above 1.37.

As for `COc1ccccc1N1CCN(CCCOc2ccc(-n3nc4ccc(C(F)(F)F)cc4n3)cc2)CC1`, the EC50 in data set [1] was above 100 µM; in the data set on Poliovirus 1, above 100 µM; in [4], above 100 µM; in the data set on Coxsackievirus B5 it was 53 µM; with Human orthopneumovirus, above 100 µM; in data set [8], above 100 µM. In addition, the EC50 (in [10]; in the data set with Vaccinia virus; with Yellow fever virus) was above 100 µM in each case. In addition, the CC50 in data set [3] was 100 µM; in data set [6], above 100 µM; in data set [7], above 100 µM. Also, the 50% cytotoxic concentration (CC50) at 96 h in [5] was determined as 100 µM. Further, the “Ratio CC50/EC50” value in data set [9] was 1.89.

As for `CC(C)(CCCOc1ccc(-n2nc3ccc(Cl)cc3n2)cc1)C(=O)O`, the EC50 is above 100 µM in [1]; above 100 µM in the data set on Poliovirus 1; above 100 µM in data set [4]; 0.7 µM in the data set with Coxsackievirus B5; 2 µM with Human orthopneumovirus; above 100 µM in data set [8]. Further, the EC50 in the data set on Vaccinia virus and in the data set with Yellow fever virus was above 100 µM throughout. For the same molecule, the CC50 in [3] came to 15 µM; in [6] it was 16 µM; in data set [7], 32 µM. Further, the CC50 at 96 h in [5] came to 51 µM. Besides, the figures for the “Ratio CC50/EC50” value in data set [9] and in data set [11] were 31.43 and 7.5, respectively.

As for `Cc1ccc2nn(-c3ccc(OC(C)(C)C(=O)O)cc3)nc2c1`, the EC50 was above 100 µM in data set [1]; above 100 µM in the data set with Poliovirus 1; above 100 µM in data set [4]; above 100 µM in the data set with Coxsackievirus B5; 22 µM in the data set with Human orthopneumovirus; 90 µM in data set [8]. The EC50 with Vaccinia virus and in the data set with Yellow fever virus was above 100 µM throughout. Also, the “Ratio CC50/EC50” value in data set [2] is on record as above 1.11; in data set [11], 4.32. Also, the values for the CC50 in data set [3], in data set [6] and in [7] were 95 µM, above 100 µM and above 100 µM, respectively. Also, in data set [5], the CC50 at 96 h is above 100 µM.

For `CC(C)(COc1ccc(-n2nc3ccc(Cl)cc3n2)cc1)C(=O)O`, the concentration for a half-maximal effect (EC50) in [1] was above 100 µM; in the data set on Poliovirus 1 it was above 100 µM; in [4], above 100 µM; with Coxsackievirus B5 it was 1.7 µM; with Human orthopneumovirus it was 12 µM; in data set [8] it was 21 µM. For the same molecule, the EC50 with Vaccinia virus and in the data set with Yellow fever virus was above 100 µM each time. Further, the entries for the “Ratio CC50/EC50” value in data set [2], in data set [9] and in data set [11] were 2.47, 23.53 and 3.33, respectively. Further, the CC50 was determined as 40 µM in data set [3], 47 µM in data set [6] and 52 µM in data set [7]. In addition, in data set [5], the 50% cytotoxic concentration (CC50) at 96 h stood at 94 µM.

Consider `CC(=O)Nc1ccc(-n2nc3ccccc3n2)cc1`, for which the EC50 in data set [1] is above 100 µM; in the data set on Poliovirus 1, above 100 µM; in data set [4] it was above 100 µM; in the data set on Coxsackievirus B5, 40 µM; in the data set with Human orthopneumovirus, above 100 µM; in data set [8], 70 µM. Further, the EC50 in data set [10] is 83 µM; with Vaccinia virus, above 100 µM; in the data set on Yellow fever virus, above 100 µM. In addition, the results for the “Ratio CC50/EC50” value in [2] and in data set [9] were 1.43 and above 2.5, respectively. For the same molecule, the CC50 in data set [3] was above 100 µM; in [6], above 100 µM; in data set [7] it was 100 µM. Also, in [5], the CC50 at 96 h is 66 µM.

`Nc1ccc(-n2nc3ccccc3n2)cc1`: the EC50 in data set [1] is above 100 µM; with Poliovirus 1, above 100 µM; in data set [4] it was above 100 µM; with Coxsackievirus B5 it was above 100 µM; with Human orthopneumovirus, above 100 µM; in data set [8], 35 µM. The values for the EC50 (in data set [10]; in the data set on Vaccinia virus; in the data set with Yellow fever virus) were 90 µM, above 100 µM and 75 µM, respectively. Also, the “Ratio CC50/EC50” value in data set [2] is 2.86; in data set [12], 1.33. The CC50 is above 100 µM in [3], 100 µM in data set [6] and 100 µM in data set [7]. The CC50 at 96 h in data set [5] was at least 100 µM.

For `CC(CC(=O)O)n1nc2c(Cl)c(Cl)c(Cl)c(Cl)c2n1` (configuration not stated), the 50% effective concentration (EC50) in data set [1] was above 100 µM; in data set [4], above 100 µM; in the data set on Coxsackievirus B5, 25 µM; in the data set on Human orthopneumovirus it was 8 µM; in data set [8], 49 µM; in the data set on Vaccinia virus, above 100 µM. For the same molecule, in the data set on Yellow fever virus, the concentration giving a half-maximal response (EC50) was above 100 µM. Besides, the “Ratio CC50/EC50” value in [2] came out at 1.43; in data set [11], 3.12. The CC50 in data set [3] was 25 µM; in [6] it was 33 µM; in data set [7], 70 µM. The CC50 at 96 h in [5] was above 100 µM.
